For series [1], the system named is LasB. The series is classed as in vivo, mouse. To be noted: compared to the vehicle group; 4b 10 mg/kg TID, levofloxacin 25 mg/kg.
Series [2] has as its system P. aeruginosa DSM-1117. Description: Neutropenic lung infection model (PD study). Conditions: neutropenic mice, 24 h; 4b 10 mg/kg TID nebulized, levofloxacin 25 mg/kg IP.
Description: For the therapeutic neutropenic
pneumonia model, female CD-1 mice, 8-weeks-old, (Charles River, Germany) were rendered
neutropenic by administration of 150 mg/kg and 100 mg/kg cyclophosphamide i.p. on day –4 and
–1, respectively. The inoculum was prepared as follows: on day -1 the P. aeruginosa strain DSM-
single colony was inoculated into LB medium (diluted 1:6 in water) containing 0.01% mucin and
incubated at 120 rpm and 37 °C.
washed twice in 0.9 % NaCl-solution. Then they were adjusted to an OD of 10. For infection with
P. aeruginosa an inoculum of 1.2x10^9 cfu/mL was used. At d0 mice were infected by nebulization
using an Aeroneb® nebulizer (Kent Scientific) of 20 µL 1.2x10^9 CFU/ml P. aeruginosa DSM-
To control bacterial burden after nebulization, two animals were used as inoculum control
group. The following groups were used: (1) vehicle control group, (2) levofloxacin group wit h
mg/kg inhaled TID (t= 2, 6 and 10 h) combined with levofloxacin at 25 mg/kg IP QD (t= 2 h p.i.).
After isolation of blood, lung was
removed, weighed, and homogenized in 3 mL 0.9% NaCl. For de termination of CFUs, suspensions
of homogenized organs were serially diluted, plated on agar plates and incubated overnight at 37
°C. CFUs were determined by manual counting.
For series [3], the target named is T1, LasB (Pseudomonas aeruginosa, UniProt Q02RJ6).
T1 construct: made in house
Description: biochemical. The series is classed as biochemical.

Series [4] in a line: Lipophilicity determination (LogD7.4, HPLC-MS). The series is classed as physicochemical.
Description: Lipophilicity determination. LogD7.4 was analyzed using an HPLC−MS based method.50 The retention time of 12 compounds with known LogD7.4 was determined and plotted toward their LogD7.4. Linear regression was used to determine the LogD7.4 of unknown compounds. Analysis was performed using a Dionex Ultimate 3000 HPLC system coupled to a TSQ Quantum Access MAX (Thermo Fisher, Dreieich, Germany) with the following conditions: EC150/2 NUCLEODUR C18 Pyramid column, 5 μM (Macherey Nagel, Düren, Germany); eluent A: 50 mM NH4OAc pH 7.4, eluent B: acetonitrile, and flow: 0.6 mL/min.
Series [5] is described as follows: Metabolic stability in mouse liver S9 fraction. The series is classed as in vitro ADME.
Series [6] is described as follows: Metabolic stability in human liver S9 fraction. The series is classed as in vitro ADME.
The nature of series [7]: Plasma stability, mouse. The series is classed as in vitro ADME. Conditions: for half-life at 1 μM: mouse plasma, read-out: Plasma T1/2 Mouse.
The nature of series [8]: Calu-3 permeability. The series is classed as in vitro ADME. To be noted: human.
The target of series [9] is T2, MMP-1 (Homo sapiens, UniProt P03956).
T2 construct: purchased AnaSpec (Fremont, CA, USA)
T2 sequence (P03956 100-469): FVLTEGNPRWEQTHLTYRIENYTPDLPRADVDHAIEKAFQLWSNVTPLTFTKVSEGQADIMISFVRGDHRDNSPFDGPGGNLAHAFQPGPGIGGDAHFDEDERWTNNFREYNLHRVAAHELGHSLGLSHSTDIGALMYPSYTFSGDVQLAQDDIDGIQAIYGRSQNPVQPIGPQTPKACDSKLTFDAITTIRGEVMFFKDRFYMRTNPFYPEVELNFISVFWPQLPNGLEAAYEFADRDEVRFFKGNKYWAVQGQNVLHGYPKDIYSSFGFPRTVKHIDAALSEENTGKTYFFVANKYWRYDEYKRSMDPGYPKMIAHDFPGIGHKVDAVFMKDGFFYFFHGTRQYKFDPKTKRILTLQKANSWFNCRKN
Description: MMP-1 inhibition assay. The series is classed as biochemical. Conditions: 100 μM; read-out: % inhibition MMP-1.

The target in series [10] is T3, MMP-2 (Homo sapiens, UniProt P08253).
T3 construct: purchased AnaSpec (Fremont, CA, USA)
T3 sequence (P08253 110-660): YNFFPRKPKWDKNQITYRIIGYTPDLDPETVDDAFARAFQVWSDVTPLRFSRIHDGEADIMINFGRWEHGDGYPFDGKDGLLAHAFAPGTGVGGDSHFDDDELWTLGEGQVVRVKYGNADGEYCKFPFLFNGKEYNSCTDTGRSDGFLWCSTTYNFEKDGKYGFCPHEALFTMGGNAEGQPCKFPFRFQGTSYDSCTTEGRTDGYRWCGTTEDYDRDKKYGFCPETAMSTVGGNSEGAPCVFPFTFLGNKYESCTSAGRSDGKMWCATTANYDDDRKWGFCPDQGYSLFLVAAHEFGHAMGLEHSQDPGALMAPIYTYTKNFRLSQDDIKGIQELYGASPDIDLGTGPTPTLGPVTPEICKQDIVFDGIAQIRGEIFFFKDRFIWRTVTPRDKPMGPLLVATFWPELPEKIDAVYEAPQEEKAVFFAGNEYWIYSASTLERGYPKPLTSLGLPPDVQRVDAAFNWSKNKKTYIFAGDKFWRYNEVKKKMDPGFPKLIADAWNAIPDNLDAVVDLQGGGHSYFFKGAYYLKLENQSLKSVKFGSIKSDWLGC
Description: MMP-2 inhibition assay. The series is classed as biochemical. Conditions: 100 μM; read-out: % inhibition MMP-2.

The target in series [11] is T4, MMP-3 (Homo sapiens, UniProt P08254).
T4 construct: purchased AnaSpec (Fremont, CA, USA)
Description: MMP-3 inhibition assay. The series is classed as biochemical. To be noted: 100 μM; read-out: % inhibition MMP-3.

Series [12] deals with T5, HDAC-3 (Homo sapiens, UniProt O15379).
T5 construct: purchased Sigma-Aldrich (Saint Louis, MO)
Description: HDAC-3 inhibitor screening kit. The series is classed as biochemical.

In series [13] the target is T6, HDAC-8 (Homo sapiens, UniProt Q9BY41).
T6 construct: purchased Sigma-Aldrich (Saint Louis, MO)
T6 sequence (Q9BY41 1-377): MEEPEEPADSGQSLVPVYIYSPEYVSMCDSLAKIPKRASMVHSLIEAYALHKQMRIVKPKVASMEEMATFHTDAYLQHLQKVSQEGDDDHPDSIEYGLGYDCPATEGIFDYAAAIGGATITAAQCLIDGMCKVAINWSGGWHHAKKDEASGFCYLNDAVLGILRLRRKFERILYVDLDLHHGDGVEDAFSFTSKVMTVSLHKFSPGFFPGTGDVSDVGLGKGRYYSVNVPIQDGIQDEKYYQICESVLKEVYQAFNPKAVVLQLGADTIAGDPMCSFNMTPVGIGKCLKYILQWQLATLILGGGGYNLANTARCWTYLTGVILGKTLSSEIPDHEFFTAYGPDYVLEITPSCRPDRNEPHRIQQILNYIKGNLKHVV
Briefly: HDAC-8 inhibitor screening kit. The series is classed as biochemical.

Series [14] addresses T7, COX-1 (Ovis aries, UniProt P05979).
T7 construct: purchased Abcam (Cambridge, UK)
T7 sequence (P05979 25-600): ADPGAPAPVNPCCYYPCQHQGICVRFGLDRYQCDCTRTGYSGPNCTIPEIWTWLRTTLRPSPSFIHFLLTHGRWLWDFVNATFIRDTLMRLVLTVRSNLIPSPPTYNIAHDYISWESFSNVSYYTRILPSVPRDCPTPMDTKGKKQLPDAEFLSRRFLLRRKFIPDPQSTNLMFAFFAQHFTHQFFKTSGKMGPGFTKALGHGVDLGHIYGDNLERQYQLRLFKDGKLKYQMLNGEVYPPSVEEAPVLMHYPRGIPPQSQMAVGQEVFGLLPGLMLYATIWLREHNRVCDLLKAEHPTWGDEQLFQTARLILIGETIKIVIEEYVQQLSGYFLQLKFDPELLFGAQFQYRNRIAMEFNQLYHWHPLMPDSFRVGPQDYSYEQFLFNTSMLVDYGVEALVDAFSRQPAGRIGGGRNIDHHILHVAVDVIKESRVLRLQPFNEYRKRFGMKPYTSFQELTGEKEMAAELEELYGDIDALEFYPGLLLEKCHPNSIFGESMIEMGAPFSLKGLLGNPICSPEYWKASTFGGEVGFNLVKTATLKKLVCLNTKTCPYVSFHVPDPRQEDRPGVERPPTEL
Briefly: Fluorometric COX-1 inhibitor assay. The series is classed as biochemical, human.

In series [15] the test system is HepG2. To be noted: human, 48 h, 100 µM.
Description: (§1) Culturing of HepG2, A549 and HEK293 cells. The human hepatocellular carcinoma cell line HepG2, the lung adenocarcinoma cell line A549 and Human Embryonic (HEK) 293 cells were cultured in Dulbecco's Modified Eagle Medium (DMEM), containing 10% Fetal Bovine Serum
(§2) (FBS) and 1% penicillin-streptomycin mixture. Cells were maintained according to standard cell
(§3) Cytotoxicity assay. An MTT-based assay was employed to evaluate the viability of HepG2,
(§4) HEK293 and A549 cells after challenge with selected LasB inhibitors and performed as described
In series [16] the test system is HEK293. Conditions: human, 48 h, 100 µM.
Description: as §1, §2, §3, §4
For series [17] the following is noted: mouse, in vivo.
For series [18], the target named is T8, TACE (Homo sapiens, UniProt P78536).
T8 construct: purchased Sigma-Aldrich (Saint Louis, MO)
Briefly: TACE inhibitor screening kit. The series is classed as biochemical. Conditions: 100 μM; read-out: % inhibition TACE.

The target of series [19] is ColH-PD (Hathewaya histolytica, UniProt Q46085). Briefly: biochemical. The series is classed as biochemical, Clostridium histolyticum. To be noted: read-out: % inhibition ColH-PD @1 µM.
Series [20] in a line: Microsomal stability, mouse liver microsomes. The series is classed as in vitro ADME. To be noted: C57BL6, mouse, pooled liver microsomes.
Series [21] in a line: Microsomal stability, rat liver microsomes. The series is classed as in vitro ADME. To be noted: Wistar, pooled liver microsomes.
Series [22] is described as follows: Microsomal stability, minipig liver microsomes. The series is classed as in vitro ADME. To be noted: Göttingen, pooled liver microsomes.
Series [23] can be described thus: Plasma stability, rat. The series is classed as in vitro ADME. Conditions: Wistar, pooled plasma, species profiling, read-out: Plasma T1/2 Rat (Wistar).
Series [24] can be described thus: Plasma stability, minipig. The series is classed as in vitro ADME. To be noted: Göttingen, pooled plasma, species profiling, read-out: Plasma T1/2 Minipig (Göttingen).
The subject of series [25] is P. aeruginosa PA14. Briefly: Bacterial growth inhibition assay. Conditions: Pseudomonas aeruginosa, PA14; 100 µM compound concentration; read-out: Percent (%) growth inhibition of P. aeruginosa PA14. The series is classed as cell-based, Pseudomonas aeruginosa.
Description: Bacterial growth inhibition assay. Assays regarding the determination of the MIC were
performed as described recently for P. aeruginosa PA14.58
Series [26] relates to 3D lung organoids. Description: Lung organoid assay. The series is classed as cell-based, human.
The subject of series [27] is Eurofins SafetyScreen44 panel. Description: Off-target SafetyScreen44 panel. Conditions: 10 μM. The source says:
Then, we assessed potential additional safety liabilities of 4a and 4b using the Eurofins SafetyScreen44 panel to identify the most important off-target interactions at an early stage. […] Furthermore, to gain a deeper insight into the potential clinical applicability, we investigated the toxicity of compounds in vivo on zebrafish embryos.
Off-Target Safety Screen44TM Panel.
Eurofins Cerep, according to their guidelines.
their Standard Operating Procedures.
Zebrafish embryo toxicity.

Series [28] concerns zebrafish embryos. Briefly: Zebrafish embryo toxicity.
Description: Zebrafish embryo toxicity. The experiment was performed according to a procedure described
in the literature55 with minor modifications using zebrafish embryos of the AB wild-type line at 1
day post fertilization (dpf).
The subject of series [29] is A549 cells treated with P. aeruginosa PAO1 and PA14 supernatants. Briefly: A549 cells challenged with P. aeruginosa culture supernatants. Conditions: PAO1 or PA14 csn.
Description: Cells were maintained according to standard cell
PA14 csn production. The csn of wt PA14 and ΔlasB PA14 was produced as we previously
Validation of the effect of LasB inhibitors on A549 cells in vitro. The experiment was performed
as described previously.32 The Picrosirius red assay was performed by washing the csn-challenged
cells (± inhibitor) 3x with PBS followed by an incubation with Bouin solution (Sigma) at RT for
20 min. The cells were incubated with 0.1% Picrosirius red dye (ab150681) at RT for 2 h. Then,
they were washed once with 0.01 N HCl, and the matrix was dissolved in 0.01 N NaOH. The
absorption was measured at 570 nm using a PHERAstar plate reader (BMG Labtech). By dividing
the absorbance of each sample by the absorbance of the healthy sample, the relative collagen
quantity was determined. For each condition, the experiment was performed three times. To
determine the rescue of A549 cells treated with 5% wt PA14 csn using our compounds, the LasB
inhibitors were used at 2, 0.5, 0.1 and 0.05 µM. The compounds were incubated in F12K medium,
Cell detachment was then evaluated, and a Trypan Blue cell
cells/well were seeded into a flat bottom 96-well plate (Corning™ Costar™) and incubated at 37
were tested against 10% (v/v) P. aeruginosa PAO1 csn diluted in DMEM starting from 10 µM
and 20 µM, respectively. Compound was initially dissolved in DMSO, and a low final assay
concentration of 0.5% (v/v) was applied to minimize the proteolytic effect of DMSO on the
bacterial culture supernatant. In addition, cells were challenged with 10% (v/v) of ΔlasB PAO1 to

Read-outs that look alike come from different tables or passages of the source. Some results are limits rather than exact numbers.

T1 sequence (Q02RJ6 198-498): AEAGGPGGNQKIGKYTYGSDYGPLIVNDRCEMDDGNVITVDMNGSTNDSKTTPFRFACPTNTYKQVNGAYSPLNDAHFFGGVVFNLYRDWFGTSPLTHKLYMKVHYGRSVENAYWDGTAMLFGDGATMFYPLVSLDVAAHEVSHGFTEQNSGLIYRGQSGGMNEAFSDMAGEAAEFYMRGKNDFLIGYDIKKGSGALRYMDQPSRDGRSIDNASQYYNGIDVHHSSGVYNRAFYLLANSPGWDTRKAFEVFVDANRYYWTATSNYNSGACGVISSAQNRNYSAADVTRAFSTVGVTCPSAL
T5 sequence (O15379 whole entry): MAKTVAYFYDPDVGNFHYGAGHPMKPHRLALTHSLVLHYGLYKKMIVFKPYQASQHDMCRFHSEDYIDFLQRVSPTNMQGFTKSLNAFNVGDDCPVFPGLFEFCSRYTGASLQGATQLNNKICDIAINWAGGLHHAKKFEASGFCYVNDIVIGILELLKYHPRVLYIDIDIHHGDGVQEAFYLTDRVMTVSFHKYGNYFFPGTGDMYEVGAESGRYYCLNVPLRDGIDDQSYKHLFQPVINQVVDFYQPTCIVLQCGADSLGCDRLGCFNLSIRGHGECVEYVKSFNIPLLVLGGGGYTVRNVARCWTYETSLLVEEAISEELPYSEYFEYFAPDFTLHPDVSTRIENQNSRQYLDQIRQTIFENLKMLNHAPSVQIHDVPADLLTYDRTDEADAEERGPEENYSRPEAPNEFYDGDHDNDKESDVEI
T5 sequence (Q9Y618 395-489 partner limits assumed): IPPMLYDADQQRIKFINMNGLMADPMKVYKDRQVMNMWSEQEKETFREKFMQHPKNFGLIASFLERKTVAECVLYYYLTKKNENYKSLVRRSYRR
T8 sequence (P78536 215-824): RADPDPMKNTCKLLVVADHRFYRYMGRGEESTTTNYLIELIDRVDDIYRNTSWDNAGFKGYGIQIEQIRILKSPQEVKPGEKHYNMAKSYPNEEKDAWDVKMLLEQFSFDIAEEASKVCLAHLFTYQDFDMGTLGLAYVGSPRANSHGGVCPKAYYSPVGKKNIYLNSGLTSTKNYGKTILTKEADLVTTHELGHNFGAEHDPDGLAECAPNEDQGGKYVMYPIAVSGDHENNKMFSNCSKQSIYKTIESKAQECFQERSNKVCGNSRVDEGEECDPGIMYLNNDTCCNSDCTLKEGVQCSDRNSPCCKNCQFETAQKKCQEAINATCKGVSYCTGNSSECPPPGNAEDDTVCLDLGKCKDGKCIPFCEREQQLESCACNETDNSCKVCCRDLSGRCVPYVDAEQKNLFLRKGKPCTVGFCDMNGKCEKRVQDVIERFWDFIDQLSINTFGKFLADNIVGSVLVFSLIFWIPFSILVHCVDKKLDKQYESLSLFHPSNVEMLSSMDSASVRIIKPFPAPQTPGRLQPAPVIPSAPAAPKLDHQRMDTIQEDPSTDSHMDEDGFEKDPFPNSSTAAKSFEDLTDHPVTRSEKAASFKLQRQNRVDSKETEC
T4 sequence (P08254 100-477): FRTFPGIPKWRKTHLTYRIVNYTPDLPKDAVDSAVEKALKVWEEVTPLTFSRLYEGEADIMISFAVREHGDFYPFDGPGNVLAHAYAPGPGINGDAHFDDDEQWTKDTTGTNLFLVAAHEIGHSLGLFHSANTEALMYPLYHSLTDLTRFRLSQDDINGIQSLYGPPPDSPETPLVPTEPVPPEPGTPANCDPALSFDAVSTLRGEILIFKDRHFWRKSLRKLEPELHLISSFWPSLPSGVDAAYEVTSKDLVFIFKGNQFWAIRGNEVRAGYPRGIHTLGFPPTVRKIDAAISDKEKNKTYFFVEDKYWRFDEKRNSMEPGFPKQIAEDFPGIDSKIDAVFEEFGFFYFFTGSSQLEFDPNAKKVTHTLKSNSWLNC
Sequence of ColH-PD (Q46085 331-721 limits assumed): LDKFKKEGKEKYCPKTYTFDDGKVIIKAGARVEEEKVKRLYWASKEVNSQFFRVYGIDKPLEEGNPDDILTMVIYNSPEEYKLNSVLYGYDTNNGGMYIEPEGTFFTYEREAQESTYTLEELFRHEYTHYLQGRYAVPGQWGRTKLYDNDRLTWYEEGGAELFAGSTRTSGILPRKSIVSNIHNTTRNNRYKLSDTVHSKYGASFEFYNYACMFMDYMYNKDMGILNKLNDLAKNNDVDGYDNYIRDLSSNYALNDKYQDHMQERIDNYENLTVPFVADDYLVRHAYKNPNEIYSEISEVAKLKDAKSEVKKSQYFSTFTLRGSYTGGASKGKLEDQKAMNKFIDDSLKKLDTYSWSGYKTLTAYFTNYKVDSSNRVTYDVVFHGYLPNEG

As to `C[C@H]1COc2c(N3CCN(C)CC3)c(F)cc3c(=O)c(C(=O)O)cn1c23` [levofloxacin, reference compound], in [1], the “LasB protein levels in blood” value is on record as “clear reduction”. The “effect on bacterial burden (CFU) in lung” value in series [2] was “reduced the bacterial burden back to stasis”.

Take `Cc1ccc(NC(=O)C(CC(C)C)C(=O)NO)cc1` (stereo not shown) [Compound 3g]: in series [3], the “fold more potent compared to the best phosphonate inhibitor” value came out at 2 fold. Further, in series [3] (vs 1), the “fold improvement of LasB activity compared to thiol hit 1” value is given as 30 fold. Moreover, the logD7.4 in series [4] (pH 7.4, chromatographic) stood at 1.81. The chromatographic logD in series [4] (pH 7.4, pH 7.4, chromatographic) is above 1.8. The microsomal CLint at 1 μM in series [5] was 64 ± 10 µL/min/mg; in [6], below 5.8 µL/min/mg. Also, the half-life at 1 μM in series [7] is above 150 min. The compound further came in with a Papp at 300 min in [8] of 9.8 ± 2.6 ×10⁻⁶ cm/s. The inhibition at 100 µM in [9] was 29 ± 3%; in series [10] it was 26 ± 2%; in [11] it was 16 ± 7%; in series [12] it was below 10%; in series [13], below 10%; in [14], below 10%. Moreover, in series [15], the “% growth inhibition HepG2” value is 26 ± 11%. Also, the “% growth inhibition HEK293” value in series [16] amounted to 12 ± 6%. Besides, the “detection in ELF and lung tissue” value in series [17] is recorded as “not detected”.

Regarding `Cc1ccc(NC(=O)C(CC(C)C)P(=O)(O)O)cc1` (stereo not shown) [Compound 4a], the IC50 is 51.2 ± 6.7 nM in series [3] (FRET-based assay, read-out: LasB IC50) and 123 ± 56 nM in series [3] (LasB IC50 in presence of 1% pulmonary surfactant, 1% pulmonary surfactant). For the same compound, the microsomal CLint at 1 μM in [5] and in [6] was below 5.8 µL/min/mg each time. The half-life in series [7] (C57BL6, mouse, pooled plasma, species profiling, read-out: Plasma T1/2 Mouse (C57BL6)) was above 240 min; in [23], above 240 min; in series [24] it was above 240 min. Besides, the half-life at 1 μM in [7] is above 150 min. Further, the inhibition at 100 µM in series [12], in series [13], in series [18], in series [14] and in series [25] was below 10% throughout. The inhibition at 1 µM in series [19] is below 10%. The microsomal CLint in [20], in series [21] and in [22] was below 11.6 µL/min/mg each time. The “viability of lung organoids challenged with 5% PA14 csn” value in [26] (5% PA14 csn, 48 h, MTT) was “improved in a dose-dependent manner”. The “toxic effects on nontreated lung organoids” value in series [26] (concentrations tested up to 100 μM) is recorded as “did not have significant toxic effects”. Further, in [27], the “inhibition of SafetyScreen44 targets” value is on record as “no significant inhibition”. Besides, the Survival rate in series [28] (12.5 µM), in series [28] (25 µM), in series [28] (50 µM) and in series [28] (100 μM) was 100% throughout. In addition, the Screening observations is reported as 1 edema in series [28] (12.5 µM, 3 dpf); 1 edema in series [28] (12.5 µM, 4 dpf); 1 nsb, 1 edema in series [28] (12.5 µM, 5 dpf); 1 edema in series [28] (50 µM, 3 dpf); 1 edema in series [28] (50 µM, 4 dpf); 1 nsb, 1 edema in series [28] (50 µM, 5 dpf). In addition, the Screening observations in [28] (100 µM, 5 dpf) is 3 nsb. The “maximum tolerated concentration (MTC)” value in series [28] (zebrafish embryos) was at least 100 µM. Further, the “LasB-related cytotoxicity in csn-treated A549 cells” value in [29] was “dose-dependent reduction of LasB-related cytotoxicity”.

The values above are taken from PMC10755728, “Inhibitors of the Elastase LasB for the Treatment of Pseudomonas aeruginosa Lung Infections” (ACS Central Science, 2023).
